Source: article PMC8911944, “Screening of Natural Products Inhibitors of SARS-CoV-2 Entry” (Molecules, 2022)

The molecules below were run on pseudotyped HIV-1 with the D614G SARS-CoV-2 spike glycoprotein.
Assay type: cell-based

Molecule	Antiviral Activity (% of Inhibition) [%]	IC50 (50% inhibitory concentration)
CC1=C[C@H](O)[C@H]2C[C@@H]1C2(C)C (relative stereo) [cis-Verbenol]	−171.26 ± 32.54	–
C/C=C/[C@H]1OC(=O)C=C[C@H]1OC(C)=O [Acetylphomolactone]	−0.65 ± 6.16	–
CC(=O)OC1C=CC(=O)OC1C1OC1C (stereo not drawn) [Asperline]	−15.48 ± 8.34	–
CC(=O)C1COC(O)C1C (stereo not drawn) [Botryodiplodin]	−88.21 ± 12.51	–
C=C1CC[C@H]2O[C@]2(C)CC[C@@H]2[C@@H]1CC2(C)C [Caryophyllene Oxide]	43.82 ± 6.31	–
C[C@H]1CC[C@@H](C(C)(C)O)CC2=C1CC[C@@H]2C [Guaiol]	−60.20 ± 8.02	–
CC(O)[C@@H]1NC(=O)c2cccn2C1=O (stereo partly drawn) [Macrophominol]	−91.39 ± 26.65	–
C=C(C)[C@H]1CC=C(C)CC1 [R-Limonene]	−27.90 ± 16.41	–
C/C=C/c1ccc(OC)cc1 [Trans-anethole]	5.02 ± 0.71	–
C=C1CC/C=C(\C)CC[C@@H]2[C@@H]1CC2(C)C [β-Caryophyllene]	–	98.5
Isoasperline	−19.82 ± 10.21	–
S-Limonene	−62.63 ± 22.17	–
